# In PMC10046961, “High-Throughput Screening Assay for Detecting Drug-Induced Changes in Synchronized Neuronal Oscillations and Potential Seizure Risk Based on Ca^2+ Fluorescence Measurements in Human Induced Pluripotent Stem Cell (hiPSC)-Derived Neuronal 2D and 3D Cultures” (Cells, 2023):
# Read-outs that look alike come from different tables or passages of the source. Marks after values point to notes of the source that are not given here.
# Assays:
# [1] = test system: hiPSC-derived neurons co-cultured with human primary astrocytes in 2D; experiment: Ca2+ transient oscillation assay (FDSS), 2D co-culture; type: cell-based; conditions: for effect on peak number / Ca2+ neuronal oscillations, in words: 2D format; for activation at 3.7 µM / activation at 11.11 µM / activation at 33.33 µM / activation at 100 µM / activation at 0.11 µM / activation at 0.33 µM / activation at 1 µM / activation at 3 µM: Homo sapiens, 1 h, 60 min
# Procedure, shortened: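 Cultures were 10,000 CW50065 hiPSC excitatory neurons plus 2500 primary human astrocytes per well. Recordings used Cal-520 dye in HBSS/HEPES/glucose at 37 °C, with a 470/540 nm read at 2 Hz. Oscillations were stabilized with 0.04% DMSO, read for 20 min, then read again 60 min after compound addition (final DMSO 0.1%).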
# [2] = test system: hiPSC-derived neurons co-cultured with human primary astrocytes in 3D; experiment: Ca2+ transient oscillation assay (FDSS), 3D spheroids; type: cell-based; conditions: 60 min
# Procedure, shortened: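 Fura-2 fluorescence was read twice for 20 min each: a baseline 10 min after 0.04% DMSO, and again 60 min after compound addition at nominal final concentration. The 3D co-cultures (1:1 hiPSC neurons from a donor and human astrocytes, 8000 each) matured 5 weeks in BrainPhys medium after a 1-week differentiation.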
# [3] = ref PharmaPendium, cited from earlier work
# [4] = read-out: Area under the curve - 2D Mean
# [5] = read-out: Peak amplitude - 2D Mean
# [6] = read-out: Peak-to-peak interval - 2D Mean
# [7] = Table 1, peak plasma concentration in men, free therapeutic Cmax
# [8] = Table 2, highest plasma concentration in humans after the therapeutic dose
smiles,measurement,setting,value
O=C1NC(=O)C(c2ccccc2)(c2ccccc2)N1 [Phenytoin],"effect on peak number / Ca2+ neuronal oscillations, in words",[1],significantly reduced peak number
same,activation at 3.7 µM,[1]; [4],33.2%
same,activation at 3.7 µM,[1]; read-out: Peak Number—2D Mean,-33.5%
same,activation at 3.7 µM,[1]; [5],7.3%
same,activation at 3.7 µM,[1]; read-out: Peak width - 2D Mean,27.2%
same,activation at 3.7 µM,[1]; [6],46.3%
same,activation at 11.11 µM,[1]; [4],27.5%
same,activation at 11.11 µM,[1]; read-out: Peak Number—2D Mean,-15.2%
same,activation at 11.11 µM,[1]; [5],-0.2%
same,activation at 11.11 µM,[1]; read-out: Peak width - 2D Mean,31.5%
same,activation at 11.11 µM,[1]; [6],22.2%
same,activation at 33.33 µM,[1]; [4],15.8%
same,activation at 33.33 µM,[1]; read-out: Peak Number—2D Mean,-51.2%
same,activation at 33.33 µM,[1]; [5],-3%
same,activation at 33.33 µM,[1]; read-out: Peak width - 2D Mean,17%
same,activation at 33.33 µM,[1]; [6],89%
same,activation at 100 µM,[1]; [4],33.3%
same,activation at 100 µM,[1]; read-out: Peak Number—2D Mean,-27.5%
same,activation at 100 µM,[1]; [5],0.2%
same,activation at 100 µM,[1]; read-out: Peak width - 2D Mean,34.7%
same,activation at 100 µM,[1]; [6],44.5%
same,Area under the curve - 3D Mean,[2]; 3.7 µM,132.1 % change from baseline
same,Peak Number—3D Mean,[2]; 3.7 µM,1.4 % change from baseline
same,Peak amplitude - 3D Mean,[2]; 3.7 µM,111.5 % change from baseline
same,Peak width - 3D Mean,[2]; 3.7 µM,7.4 % change from baseline
same,Peak-to-peak interval - 3D Mean,[2]; 3.7 µM,2.9 % change from baseline
same,Area under the curve - 3D Mean,[2]; 11.11 µM,177.0 % change from baseline
same,Peak Number—3D Mean,[2]; 11.11 µM,−11.8 % change from baseline
same,Peak amplitude - 3D Mean,[2]; 11.11 µM,110.4 % change from baseline
same,Peak width - 3D Mean,[2]; 11.11 µM,29.4 % change from baseline
same,Peak-to-peak interval - 3D Mean,[2]; 11.11 µM,8.2 % change from baseline
same,Area under the curve - 3D Mean,[2]; 33.33 µM,199.3 % change from baseline
same,Peak Number—3D Mean,[2]; 33.33 µM,−14.6 % change from baseline
same,Peak amplitude - 3D Mean,[2]; 33.33 µM,91.2 % change from baseline
same,Peak width - 3D Mean,[2]; 33.33 µM,47.9 % change from baseline
same,Peak-to-peak interval - 3D Mean,[2]; 33.33 µM,17.7 % change from baseline
same,Area under the curve - 3D Mean,[2]; 100 µM,198.2 % change from baseline
same,Peak Number—3D Mean,[2]; 100 µM,−9.9 % change from baseline
same,Peak amplitude - 3D Mean,[2]; 100 µM,88.4 % change from baseline
same,Peak width - 3D Mean,[2]; 100 µM,50.5 % change from baseline
same,Peak-to-peak interval - 3D Mean,[2]; 100 µM,6.6 % change from baseline
same,Free Cmax,[3]; [7],4 to 15 µM
same,Free Cmax,[3]; [8],4 to 15 µM
"NCCCC(=O)O [GABA, gamma-aminobutyric acid]","effect on peak number / Ca2+ neuronal oscillations, in words",[1],significantly reduced peak number
same,activation at 0.11 µM,[1]; [4],23.1%
same,activation at 0.11 µM,[1]; read-out: Peak Number—2D Mean,-1.6%
same,activation at 0.11 µM,[1]; [5],9.1%
same,activation at 0.11 µM,[1]; read-out: Peak width - 2D Mean,13.2%
same,activation at 0.11 µM,[1]; [6],-12.3%
same,activation at 0.33 µM,[1]; [4],21.1%
same,activation at 0.33 µM,[1]; read-out: Peak Number—2D Mean,-4.4%
same,activation at 0.33 µM,[1]; [5],5.7%
same,activation at 0.33 µM,[1]; read-out: Peak width - 2D Mean,15.4%
same,activation at 0.33 µM,[1]; [6],29.1%
same,activation at 1 µM,[1]; [4],16.4%
same,activation at 1 µM,[1]; read-out: Peak Number—2D Mean,-12.4%
same,activation at 1 µM,[1]; [5],-1.4%
same,activation at 1 µM,[1]; read-out: Peak width - 2D Mean,11.7%
same,activation at 1 µM,[1]; [6],32%
same,activation at 3 µM,[1]; [4],14.9%
same,activation at 3 µM,[1]; read-out: Peak Number—2D Mean,-36.5%
same,activation at 3 µM,[1]; [5],-2.7%
same,activation at 3 µM,[1]; read-out: Peak width - 2D Mean,8.5%
same,activation at 3 µM,[1]; [6],-26.3%
same,Area under the curve - 3D Mean,[2]; 0.11 µM,111.5 % change from baseline
same,Peak Number—3D Mean,[2]; 0.11 µM,5.0 % change from baseline
same,Peak amplitude - 3D Mean,[2]; 0.11 µM,87.8 % change from baseline
same,Peak width - 3D Mean,[2]; 0.11 µM,7.6 % change from baseline
same,Peak-to-peak interval - 3D Mean,[2]; 0.11 µM,0.2 % change from baseline
same,Area under the curve - 3D Mean,[2]; 0.33 µM,116.2 % change from baseline
same,Peak Number—3D Mean,[2]; 0.33 µM,−1.8 % change from baseline
same,Peak amplitude - 3D Mean,[2]; 0.33 µM,112.0 % change from baseline
same,Peak width - 3D Mean,[2]; 0.33 µM,0.5 % change from baseline
same,Peak-to-peak interval - 3D Mean,[2]; 0.33 µM,−2.1 % change from baseline
same,Area under the curve - 3D Mean,[2]; 1 µM,97.0 % change from baseline
same,Peak Number—3D Mean,[2]; 1 µM,−0.6 % change from baseline
same,Peak amplitude - 3D Mean,[2]; 1 µM,90.5 % change from baseline
same,Peak width - 3D Mean,[2]; 1 µM,−2.7 % change from baseline
same,Peak-to-peak interval - 3D Mean,[2]; 1 µM,8.3 % change from baseline
same,Area under the curve - 3D Mean,[2]; 3 µM,118.7 % change from baseline
same,Peak Number—3D Mean,[2]; 3 µM,2.2 % change from baseline
same,Peak amplitude - 3D Mean,[2]; 3 µM,110.9 % change from baseline
same,Peak width - 3D Mean,[2]; 3 µM,0.7 % change from baseline
same,Peak-to-peak interval - 3D Mean,[2]; 3 µM,−2.5 % change from baseline
same,Free Cmax,[3]; [7],~1 µM
same,Free Cmax,[3]; [8],~1 µM
NS(=O)(=O)c1cc2c(cc1Cl)NC(C1CC3C=CC1C3)NS2(=O)=O (stereo not drawn) [Cyclothiazide],"effect on peak number / Ca2+ neuronal oscillations, in words",[1],significantly increased peak number
same,activation at 3.7 µM,[1]; [4],48%
same,activation at 3.7 µM,[1]; read-out: Peak Number—2D Mean,2.7%
same,activation at 3.7 µM,[1]; [5],12.3%
same,activation at 3.7 µM,[1]; read-out: Peak width - 2D Mean,50.8%
same,activation at 3.7 µM,[1]; [6],9.2%
same,activation at 11.11 µM,[1]; [4],18.7%
same,activation at 11.11 µM,[1]; read-out: Peak Number—2D Mean,178%
same,activation at 11.11 µM,[1]; [5],-0.5%
same,activation at 11.11 µM,[1]; read-out: Peak width - 2D Mean,24.5%
same,activation at 11.11 µM,[1]; [6],-53.3%
same,activation at 33.33 µM,[1]; [4],-9.3%
same,activation at 33.33 µM,[1]; read-out: Peak Number—2D Mean,-25.2%
same,activation at 33.33 µM,[1]; [5],-24%
same,activation at 33.33 µM,[1]; read-out: Peak width - 2D Mean,208%
same,activation at 33.33 µM,[1]; [6],0.3%
same,activation at 100 µM,[1]; [4],-53.8%
same,activation at 100 µM,[1]; read-out: Peak Number—2D Mean,-82%
same,activation at 100 µM,[1]; [5],-72.8%
same,activation at 100 µM,[1]; read-out: Peak width - 2D Mean,-17.3%
same,activation at 100 µM,[1]; [6],-70.3%
same,Area under the curve - 3D Mean,[2]; 3.7 µM,135.8 % change from baseline
same,Peak Number—3D Mean,[2]; 3.7 µM,0.0 % change from baseline
same,Peak amplitude - 3D Mean,[2]; 3.7 µM,126.0 % change from baseline
same,Peak width - 3D Mean,[2]; 3.7 µM,0.7 % change from baseline
same,Peak-to-peak interval - 3D Mean,[2]; 3.7 µM,6.7 % change from baseline
same,Area under the curve - 3D Mean,[2]; 11.11 µM,187.3 % change from baseline
same,Peak Number—3D Mean,[2]; 11.11 µM,21.5 % change from baseline
same,Peak amplitude - 3D Mean,[2]; 11.11 µM,139.0 % change from baseline
same,Peak width - 3D Mean,[2]; 11.11 µM,23.6 % change from baseline
same,Peak-to-peak interval - 3D Mean,[2]; 11.11 µM,−14.5 % change from baseline
same,Area under the curve - 3D Mean,[2]; 33.33 µM,245.1 % change from baseline
same,Peak Number—3D Mean,[2]; 33.33 µM,63.6 * % change from baseline
same,Peak amplitude - 3D Mean,[2]; 33.33 µM,113.7 % change from baseline
same,Peak width - 3D Mean,[2]; 33.33 µM,64.7 % change from baseline
same,Peak-to-peak interval - 3D Mean,[2]; 33.33 µM,−30.0 % change from baseline
same,Area under the curve - 3D Mean,[2]; 100 µM,204.6 % change from baseline
same,Peak Number—3D Mean,[2]; 100 µM,102.9 ** % change from baseline
same,Peak amplitude - 3D Mean,[2]; 100 µM,83.6 % change from baseline
same,Peak width - 3D Mean,[2]; 100 µM,80.0 % change from baseline
same,Peak-to-peak interval - 3D Mean,[2]; 100 µM,−49.3 % change from baseline
same,Free Cmax,[3]; [7],30 µM
same,Free Cmax,[3]; [8],30 µM
